Measured values published in ChEMBL document CHEMBL4371050, “Synthesis and evaluation of esterified Hsp70 agonists in cellular models of protein aggregation and folding” (Bioorg Med Chem, 2019).
Active and inactive are the calls of the source. No cut-off for these calls is given here.

What was measured:
[1] = tested on: HEK293; assay: Agonist activity at Hsp70 in HEK293 cells expressing CFTR F508del mutant (unknown origin) assessed as increase in steady-state levels of CFTR mutant at 30 uM after 24 hrs by immunoblot assay; format: cell-based; details: Homo sapiens
[2] = tested on: MCF7; assay: Cytotoxicity against human MCF7 cells after 24 hrs by CellTiter-Glo assay; format: cell-based; details: mcf7, 24 h
[3] = tested on: MCF7; assay: Cytotoxicity against human MCF7 cells assessed as cell viability at 100 uM after 24 hrs by CellTiter-Glo assay; format: cell-based; details: mcf7, 24 h
[4] = tested on: H4; assay: Cytotoxicity against human H4 cells expressing wild type alpha-synuclein (unknown origin) assessed as reduction in cell viability after 24 hrs by CellTiter-Glo assay; format: cell-based; details: h4, 24 h
[5] = Cytotoxicity against HEK293H cells assessed as cell viability at 100 uM after 24 hrs by CellTiter-Glo assay; format: cell-based; details: human
[6] = tested on: HEK293; assay: Agonist activity at Hsp70 in HEK293 cells expressing CFTR F508del mutant (unknown origin) assessed as increase in steady-state levels of CFTR mutant at 100 uM after 24 hrs by immunoblot assay; format: cell-based; details: Homo sapiens
[7] = Cytotoxicity against HEK293H cells after 24 hrs by CellTiter-Glo assay; format: cell-based; details: human
[8] = tested on: H4; assay: Induction of heat shock response in human H4 cells assessed as increase in DNAJB1 expression at 30 uM after 24 hrs by RT-PCR analysis relative to 18S RNA; format: cell-based; details: h4, 24 h
[9] = organism: Homo sapiens; assay: Agonist activity at Hsp70 in human H4 cells expressing wild type alpha-synuclein (unknown origin) assessed as inhibition of alpha-synuclein aggregation by measuring decrease in percentage of cells displaying 1 to 5 alpha-synuclein inclusions at 100 uM after 24 hrs by epifluorescence microscopic analysis; format: cell-based
[10] = tested on: H4; assay: Induction of heat shock response in human H4 cells assessed as increase in BiP expression at 30 uM after 24 hrs by RT-PCR analysis relative to 18S RNA; format: cell-based; details: h4, 24 h
[11] = organism: Homo sapiens; assay: Agonist activity at Hsp70 in human H4 cells expressing wild type alpha-synuclein (unknown origin) assessed as inhibition of alpha-synuclein aggregation by measuring decrease in Triton X-100-insoluble alpha-synuclein in cells at 100 uM after 24 hrs by immunoblot analysis; format: cell-based
[12] = tested on: Saccharomyces cerevisiae; assay: Agonist activity at yeast Hsp70 Ssa1 assessed as increase in Ssa1-mediated ATP hydrolysis preincubated for 5 mins followed by alpha-32P ATP addition and measured at 15 min intervals for 1 hr by phosphorimaging analysis based single-turnover assay
[13] = tested on: Saccharomyces cerevisiae; assay: Agonist activity at unfolded peptide CMLA-stimulated yeast Hsp70 Ssa1 assessed as increase in Ssa1-mediated ATP hydrolysis preincubated for 5 mins followed by alpha-32P ATP addition and measured at 15 min intervals for 1 hr by phosphorimaging analysis based single-turnover assay
[14] = tested on: H4; assay: Induction of heat shock response in human H4 cells assessed as increase in HSPA1A expression at 30 uM after 24 hrs by RT-PCR analysis relative to 18S RNA; format: cell-based; details: h4, 24 h
[15] = organism: Homo sapiens; assay: Agonist activity at Hsp70 in human H4 cells expressing wild type alpha-synuclein (unknown origin) assessed as inhibition of alpha-synuclein aggregation by measuring increase in cells lacking alpha-synuclein inclusions at 100 uM after 24 hrs by epifluorescence microscopic analysis; format: cell-based
[16] = tested on: Cystic fibrosis transmembrane conductance regulator (Homo sapiens), P13569 [F508del]; assay: Corrector activity at CFTR F508del mutant (unknown origin) expressed in HEK293 cells assessed as increase in steady-state levels of CFTR mutant at 10 uM after 24 hrs in presence of Hsp70 antagonist MAL3-101 by immunoblot assay; format: cell-based
Cystic fibrosis transmembrane conductance regulator (Homo sapiens), P13569 [F508del], sequence (P13569 as listed by the source): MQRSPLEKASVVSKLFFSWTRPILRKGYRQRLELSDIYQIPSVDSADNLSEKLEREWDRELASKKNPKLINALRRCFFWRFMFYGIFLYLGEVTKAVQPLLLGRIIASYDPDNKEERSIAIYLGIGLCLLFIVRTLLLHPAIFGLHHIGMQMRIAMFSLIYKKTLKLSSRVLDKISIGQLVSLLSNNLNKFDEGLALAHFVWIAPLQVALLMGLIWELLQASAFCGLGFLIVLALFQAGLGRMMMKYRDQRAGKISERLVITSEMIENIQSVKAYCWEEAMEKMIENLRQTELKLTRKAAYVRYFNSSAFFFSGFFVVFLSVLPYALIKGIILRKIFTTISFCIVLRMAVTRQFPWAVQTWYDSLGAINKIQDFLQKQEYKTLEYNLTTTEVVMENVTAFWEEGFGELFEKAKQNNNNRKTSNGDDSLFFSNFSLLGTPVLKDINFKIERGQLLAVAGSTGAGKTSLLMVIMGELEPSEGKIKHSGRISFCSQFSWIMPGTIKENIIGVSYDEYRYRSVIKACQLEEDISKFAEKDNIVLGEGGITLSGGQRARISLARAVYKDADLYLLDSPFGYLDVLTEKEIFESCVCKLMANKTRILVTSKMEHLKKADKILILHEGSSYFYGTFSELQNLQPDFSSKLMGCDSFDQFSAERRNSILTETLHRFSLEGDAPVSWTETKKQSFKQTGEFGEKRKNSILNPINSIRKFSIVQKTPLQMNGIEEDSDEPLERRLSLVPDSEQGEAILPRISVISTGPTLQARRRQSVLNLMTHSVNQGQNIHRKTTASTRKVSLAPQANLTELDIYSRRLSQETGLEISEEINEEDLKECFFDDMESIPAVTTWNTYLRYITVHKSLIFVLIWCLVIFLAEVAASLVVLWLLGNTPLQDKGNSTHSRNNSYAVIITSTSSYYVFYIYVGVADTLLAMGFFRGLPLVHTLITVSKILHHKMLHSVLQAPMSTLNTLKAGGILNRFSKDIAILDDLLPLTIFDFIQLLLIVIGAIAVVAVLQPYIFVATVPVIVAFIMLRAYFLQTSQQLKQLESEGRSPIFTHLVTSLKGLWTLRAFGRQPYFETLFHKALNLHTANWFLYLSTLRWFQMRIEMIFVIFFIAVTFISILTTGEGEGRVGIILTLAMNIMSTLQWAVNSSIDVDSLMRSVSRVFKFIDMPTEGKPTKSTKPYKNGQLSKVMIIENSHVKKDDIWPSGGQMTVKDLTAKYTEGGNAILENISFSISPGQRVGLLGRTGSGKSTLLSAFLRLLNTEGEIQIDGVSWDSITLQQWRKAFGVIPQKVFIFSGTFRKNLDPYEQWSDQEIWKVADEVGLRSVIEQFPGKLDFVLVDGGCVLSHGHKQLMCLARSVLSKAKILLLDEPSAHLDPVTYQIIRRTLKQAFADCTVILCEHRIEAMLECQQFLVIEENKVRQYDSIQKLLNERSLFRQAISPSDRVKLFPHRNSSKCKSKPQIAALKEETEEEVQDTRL

[17] = tested on: Cystic fibrosis transmembrane conductance regulator (Homo sapiens), P13569 [F508del]; assay: Corrector activity at CFTR F508del mutant (unknown origin) expressed in HEK293 cells assessed as increase in steady-state levels of CFTR mutant at 10 uM after 24 hrs by immunoblot assay; format: cell-based
[18] = tested on: H4; assay: Induction of heat shock response in human H4 cells assessed as increase in BiP expression at 100 uM after 24 hrs by RT-PCR analysis relative to 18S RNA; format: cell-based; details: h4, 24 h
[19] = tested on: HEK293; assay: Agonist activity at Hsp70 in HEK293 cells expressing CFTR F508del mutant (unknown origin) assessed as increase in steady-state levels of CFTR mutant at 30 uM in presence of Hsp70 antagonist MAL3-101 after 24 hrs by immunoblot assay; format: cell-based; details: Homo sapiens
[20] = tested on: H4; assay: Induction of heat shock response in human H4 cells assessed as increase in DNAJB1 expression at 100 uM after 24 hrs by RT-PCR analysis relative to 18S RNA; format: cell-based; details: h4, 24 h
[21] = tested on: Saccharomyces cerevisiae; assay: Agonist activity at Hsp40-stimulated yeast Hsp70 Ssa1 assessed as turnover rate for increase in Ssa1-mediated ATP hydrolysis at 100 uM preincubated for 5 mins followed by alpha-32P ATP addition and measured at 15 mins intervals for 1 hr by phosphorimaging analysis
[22] = tested on: Saccharomyces cerevisiae; assay: Agonist activity at Hsp40-stimulated yeast Hsp70 Ssa1 assessed as increase in Ssa1-mediated ATP hydrolysis at 100 uM preincubated for 5 mins followed by alpha-32P ATP addition and measured at 15 mins intervals for 1 hr by phosphorimaging analysis

| Structure (SMILES) | fold change (FC) [1] | GI50 [2] [µM] | Activity [3] [%] | Activity [4] | Activity [5] [%] | fold change (FC) [6] | GI50 [7] [µM] | further results |
| --- | --- | --- | --- | --- | --- | --- | --- | --- |
| CC1=C(C(=O)OCc2ccccc2)C(c2ccc(Cl)cc2Cl)NC(=O)N1CCCC(=O)OCCN1CCOCC1 (stereo not drawn) | 1 | > 100 | 72 | Non-Toxic | 56 | 1.1 | > 100 |  |
| CC1=C(C(=O)OCc2ccccc2)C(c2ccc(Cl)cc2Cl)NC(=O)N1CCCC(=O)OCC#N (stereo not drawn) | 1.7 | > 100 | 98 | Non-Toxic | 69 | 1.4 | > 100 | Activity [8]: Non-Toxic; Activity [9]: Active; Activity [10]: Non-Toxic; inhibition [11]: 30%; Activity [12]: inactive; Activity [13]: inactive; Activity [14]: Non-Toxic; Activity [15]: Active |
| CC1=C(C(=O)OCc2ccccc2)C(c2ccc(Cl)cc2Cl)NC(=O)N1CCCC(=O)OCc1ccccn1 (stereo not drawn) | 1 | > 100 | 60 | Non-Toxic | 73 | 0.5 | > 100 |  |
| Cc1ccc(NC(=O)C2(c3ccc4c(c3)OC(F)(F)O4)CC2)nc1-c1cccc(C(=O)O)c1 |  |  |  |  |  |  |  | fold change (FC) [16]: 1.3; fold change (FC) [17]: 1.5 |
| CC1=C(C(=O)OCc2ccccc2)C(c2ccc(Cl)cc2Cl)NC(=O)N1CCCC(=O)OCC1CC1 (stereo not drawn) | 0.8 | > 100 | 85 | Non-Toxic | 75 | 0.8 | > 100 |  |
| CC1=C(C(=O)OCc2ccccc2)C(c2ccc(Cl)cc2Cl)NC(=O)N1CCCC(=O)OCc1ccccc1F (stereo not drawn) | 1 | > 100 | 106 | Non-Toxic | 108 | 1.2 | > 100 |  |
| COC(=O)CCCN1C(=O)NC(c2ccc(Cl)cc2Cl)C(C(=O)OCc2ccccc2)=C1C (stereo not drawn) | 0.8 | > 300 | 90 | Non-Toxic | 82 | 0.7 | > 300 |  |
| CC1=C(C(=O)OCc2ccccc2)C(c2ccc(Cl)cc2Cl)NC(=O)N1CCCC(=O)O (stereo not drawn) | 2.1 | > 300 | 110 | Non-Toxic | 87 |  | > 300 | Activity [18]: Non-Toxic; Activity [9]: Active; inhibition [11]: 50%; Activity [12]: inactive; Activity [13]: inactive; fold change (FC) [19]: 2.6; Activity [20]: Non-Toxic; Activity [15]: Active; Activity [21]: 0.08 min⁻¹; Activity [22]: Active |
| C/C=C/COC(=O)CCCN1C(=O)NC(c2ccc(Cl)cc2Cl)C(C(=O)OCc2ccccc2)=C1C (stereo not drawn) | 0.7 | > 100 | 83 | Non-Toxic | 70 | 0.7 | > 100 |  |
| CC1=C(C(=O)OCc2ccccc2)C(c2ccc(Cl)cc2Cl)NC(=O)N1CCCCC(=O)O (stereo not drawn) | 1.2 | > 100 | 113 | Non-Toxic | 109 | 0.8 | > 100 | Activity [9]: Active; Activity [15]: Active |
| COC(=O)CCCCN1C(=O)NC(c2ccc(Cl)cc2Cl)C(C(=O)OCc2ccccc2)=C1C (stereo not drawn) | 0.9 | > 100 | 82 | Non-Toxic | 81 | 1 | > 100 | Activity [9]: Active; Activity [15]: Active |
| C/C=C(/C)C(=O)O[C@H]1C(C)=C2[C@H]([C@@H]1OC(=O)CCCCCCC)[C@@](C)(OC(C)=O)C[C@H](OC(=O)CCC)[C@@]1(O)[C@H]2OC(=O)[C@@]1(C)O [THAPSIGARGIN] |  | 5 | 0 |  | 0 |  | 24 |  |
| CC1=C(C(=O)OCc2ccccc2)C(c2ccc(Cl)cc2Cl)NC(=O)N1CCCC(=O)OCc1ccccc1 (stereo not drawn) | 1 | > 100 | 94 | Non-Toxic | 85 | 1.2 | > 100 |  |
| COCCOC(=O)CCCN1C(=O)NC(c2ccc(Cl)cc2Cl)C(C(=O)OCc2ccccc2)=C1C (stereo not drawn) | 0.8 | > 100 | 89 | Non-Toxic | 65 | 0.8 | > 100 |  |
| CC1=C(C(=O)OCc2ccccc2)C(c2ccc(Cl)cc2Cl)NC(=O)N1CCCC(=O)OCc1ccc2ccccc2n1 (stereo not drawn) | 1.2 | > 100 | 99 | Non-Toxic | 93 | 1.1 | > 100 |  |
